# Columns and labels:
# HSP90a protein = biological target: T1, HSP90a protein (Homo sapiens, UniProt P07900); assay: HSP90α-binding fluorescent polarization (FP) assay, BODIPY-labeled RNK04010 probe; conditions: FP competition with RNK04010 (BODIPY-labeled), 5 nM, 300 min at 25° C.
# T1 construct: purchased BPS Bioscience 50298
# Summary of the method: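 Displacement of a 5 nM fluorescent HSP90 ligand from the N-terminal HSP90a domain by FP. Incubation ran at 25° C: 120 min for the FITC-geldanamycin tracer, 300 min for the BODIPY-conjugated triazolone RNK04010.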
# [1] = test system: MIA PaCa-2 human pancreatic carcinoma; assay: MIA PaCa-2 CCK-8 proliferation assay; assay type: cell-based; conditions: Homo sapiens, MIA PaCa-2, 72 h, MIA PaCa-2 cells
# Summary of the method: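 KRAS(G12C) lines were used: MIA PaCa-2 with 2 copies, and NCI-H358 and NCI-H23 with 1 copy each. Cells were treated with 3-fold compound dilutions from 20 μM to 1.02 nM, and proliferation was read by CCK-8 absorbance. % inhibition was calculated against DMSO-treated cells after subtracting the cell-free medium blank.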
# KRAS(G12C) = KRAS(G12C) (Homo sapiens, UniProt P01116, G12C); assay: KRAS(G12C)/SOS1 homogeneous time-resolved fluorescence (HTRF) assay; set-up: purchased Cisbio 63ADK000CB16PEG; conditions: absence of GTP, 4° C. for 3 hr, read-out: KRAS (G12C) binding
# Description: KRAS(G12C)/SOS1 Homogeneous Time-Resolved Fluorescence (HTRF) Assay
# Binding of test compounds to KRAS(G12C) protein, which in turn blocks KRAS(G12C) interaction with the SOS1 protein, was measured in the absences of GTP by homogeneous time-resolved fluorescence (HTRF) using the KRAS-G12C/SOS1 Binding Assay Kit (Cisbio, #63ADK000CB16PEG), following the manufacturer's instructions, except as noted. 3-fold serial dilutions of each test compound were prepared ranging from […] to 1.02 nM. The test compound was mixed and incubated with reaction components, incubated in a sealed plate at 4° C. for 3 hr and fluorescence was measured using a PerkinElmer Envision plate reader.
# Sequence of KRAS(G12C) (P01116 1-188 isoform P01116-2 G12C): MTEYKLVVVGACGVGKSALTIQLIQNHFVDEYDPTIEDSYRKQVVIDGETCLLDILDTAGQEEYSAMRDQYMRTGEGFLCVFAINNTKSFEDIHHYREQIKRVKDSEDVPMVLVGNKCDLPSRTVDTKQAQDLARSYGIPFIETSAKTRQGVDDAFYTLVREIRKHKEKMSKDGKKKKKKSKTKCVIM
IC50 (HSP90a protein) [nM],EC50 [1] [nM],IC50 (KRAS(G12C)) [nM],SMILES
< 100,100 to 1000,100 to 1000,"C=CC(=O)N1CCN(c2nc(OCCN3CCN(C(=O)C4CCN(Cc5ccc(-n6c(C(=O)NCC(F)(F)F)nnc6-c6cc(C)c(O)cc6O)cc5)CC4)CC3)nc3c2CCN(c2cccc4cccc(Cl)c24)C3)C[C@@H]1CC#N [Compound 222, (S)-4-(4-((4-(4-(2-((4-(4-acryloyl-3-(cyanomethyl)piperazin-1-yl)-7-(8-chloronaphthalen-1-yl)-5,6,7,8-tetrahydropyrido[3,4-d]pyrimidin-2-yl)oxy)ethyl)piperazine-1-carbonyl)piperidin-1-yl)methyl)phenyl)-5-(2,4-dihydroxy-5-methylphenyl)-N-(2,2,2-trifluoroethyl)-4H-1,2,4-triazole-3-carboxamide]"
< 100,> 1000,< 100,"C=CC(=O)N1CCN(c2nc(OC[C@@H]3CC[C@H](C(=O)N4CCN(Cc5ccc(-n6c(O)nnc6-c6cc(C)c(O)cc6O)cc5)CC4)N3C)nc3c2CCN(c2cccc4cccc(Cl)c24)C3)C[C@@H]1CC#N [Compound 325, 2-[(2S)-4-[7-(8-chloronaphthalen-1-yl)-2-{[(2S,5R)-5-[4-({4-[3-(2,4-dihydroxy-5-methylphenyl)-5-hydroxy-1,2,4-triazol-4-yl]phenyl}methyl)piperazine-1-carbonyl]-1-methylpyrrolidin-2-yl]methoxy}-5H,6H,8H-pyrido[3,4-d]pyrimidin-4-yl]-1-(prop-2-enoyl)piperazin-2-yl]acetonitrile]"
< 100,> 1000,100 to 1000,"C=CC(=O)N1CCN(c2nc(OC[C@@H]3C[C@@H](OC(=O)NCc4ccc(-n5c(O)nnc5-c5cc(CC)c(O)cc5O)cc4)CN3C)nc3c2CCN(c2cccc4cccc(Cl)c24)C3)C[C@@H]1CC#N [Compound 295, (3R,5S)-5-(((4-((S)-4-acryloyl-3-(cyanomethyl)piperazin-1-yl)-7-(8-chloronaphthalen-1-yl)-5,6,7,8-tetrahydropyrido[3,4-d]pyrimidin-2-yl)oxy)methyl)-1-methylpyrrolidin-3-yl 4-(3-(5-ethyl-2,4-dihydroxyphenyl)-5-hydroxy-4H-1,2,4-triazol-4-yl)benzylcarbamate]"
< 100,> 1000,> 1000,"C=CC(=O)N1CCN(c2nc(OCC3CN(C(=O)c4ccc(-n5c(O)nnc5-c5cc(C(C)C)c(O)cc5O)cc4)C3)nc3c2CCN(c2cccc4cccc(Cl)c24)C3)C[C@@H]1CC#N [Compound 221, (S)-2-(1-acryloyl-4-(7-(8-chloronaphthalen-1-yl)-2-((1-(4-(3-(2,4-dihydroxy-5-isopropylphenyl)-5-hydroxy-4H-1,2,4-triazol-4-yl)benzoyl)azetidin-3-yl)methoxy)-5,6,7,8-tetrahydropyrido[3,4-d]pyrimidin-4-yl)piperazin-2-yl)acetonitrile]"
< 100,< 100,100 to 1000,"C=CC(=O)N1CCN(c2nc(OC[C@@H]3CC[C@H](C(=O)N4CCN(C(=O)C5CCN(Cc6ccc(-n7c(C(=O)NCC(F)(F)F)nnc7-c7cc(C(C)C)c(O)cc7O)cc6)CC5)CC4)N3C)nc3c2CCN(c2cccc4cccc(Cl)c24)C3)C[C@@H]1CC#N [Compound 304, 4-{4-[(4-{4-[(2R,5S)-5-({[7-(8-chloronaphthalen-1-yl)-4-[(3S)-3-(cyanomethyl)-4-(prop-2-enoyl)piperazin-1-yl]-5H,6H,8H-pyrido[3,4-d]pyrimidin-2-yl]oxy}methyl)-1-methylpyrrolidine-2-carbonyl]piperazine-1-carbonyl}piperidin-1-yl)methyl]p-henyl}-5-(2,4-dihydroxy-5-isopropylphenyl)-N-(2,2,2-trifluoroethyl)-1,2,4-triazole-3-carboxamide]"
< 100,> 1000,< 100,"C=CC(=O)N1CCN(c2nc(OC[C@@H]3C[C@H](NC(=O)C4CCN(C(=O)C5CCN(Cc6ccc(-n7c(O)nnc7-c7cc(C)c(O)cc7O)cc6)CC5)CC4)CN3C)nc3c2CCN(c2cccc4cccc(Cl)c24)C3)C[C@@H]1CC#N [Compound 312, N-[(3S,5S)-5-({[7-(8-chloronaphthalen-1-yl)-4-[(3S)-3-(cyanomethyl)-4-(prop-2-e-noyl)piperazin-1-yl]-5H,6H,8H-pyrido[3,4-d]pyrimidin-2-yl]oxy}methyl)-1-meth-ylpyrrolidin-3-yl]-1-[1-({4-[3-(2,4-dihydroxy-5-methylphenyl)-5-hydroxy-1,2,4-triazol-4-yl]phenyl}methyl)piperidine-4-carbonyl]piperidine-4-carboxamide]"
< 100,100 to 1000,100 to 1000,"C=CC(=O)N1CCN(c2nc(OC[C@@H]3C[C@@H](NC(=O)C4CCN(Cc5ccc(-n6c(O)nnc6-c6cc(C)c(O)cc6O)cc5)CC4)CN3C)nc3c2CCN(c2cccc4cccc(Cl)c24)C3)C[C@@H]1CC#N [Compound 198, N-((3R,5S)-5-(((4-((S)-4-acryloyl-3-(cyanomethyl)piperazin-1-yl)-7-(8-chloronaphthalen-1-yl)-5,6,7,8-tetrahydropyrido[3,4-d]pyrimidin-2-yl)oxy)methyl)-1-methylpyrrolidin-3-yl)-1-(4-(3-(2,4-dihydroxy-5-methylphenyl)-5-hydroxy-4H-1,2,4-triazol-4-yl)benzyl)piperidine-4-carboxamide, trifluoroacetic acid]"
< 100,< 100,> 1000,"CCC(=O)N1CCN(c2nc(OCCN3CCN(C(=O)C4CCN(Cc5ccc(-n6c(C(=O)NCC(F)(F)F)nnc6-c6cc(C(C)C)c(O)cc6O)cc5)CC4)CC3)nc3c2CCN(c2cccc4cccc(Cl)c24)C3)C[C@@H]1CC#N [Compound 208, (S)-4-(4-((4-(4-(2-((7-(8-chloronaphthalen-1-yl)-4-(3-(cyanomethyl)-4-propionylpiperazin-1-yl)-5,6,7,8-tetrahydropyrido[3,4-d]pyrimidin-2-yl)oxy)ethyl)piperazine-1-carbonyl)piperidin-1-yl)methyl)phenyl)-5-(2,4-dihydroxy-5-isopropylphenyl)-N-(2,2,2-trifluoroethyl)-4H-1,2,4-triazole-3-carboxamide]"
< 100,< 100,< 100,"C=CC(=O)N1CCN(c2nc(OC[C@@H]3CC[C@H](CN4CCN(C(=O)C5CCN(Cc6ccc(-n7c(C(=O)NCC(F)(F)F)nnc7-c7cc(C(C)C)c(O)cc7O)cc6)CC5)CC4)N3C)nc3c2CCN(c2cccc4cccc(Cl)c24)C3)C[C@@H]1CC#N [Compound 310, 4-(4-{[4-(4-{[(2R,5S)-5-({[7-(8-chloronaphthalen-1-yl)-4-[(3S)-3-(cyanomethyl)-4-(prop-2-enoyl)piperazin-1-yl]-5H,6H,8H-pyrido[3,4-d]pyrimidin-2-yl]oxy}methyl)-1-methylpyrrolidin-2-yl]methyl}piperazine-1-carbonyl)piperidin-1-yl]methyl}phenyl)-5-(2,4-dihydroxy-5-isopropylphenyl)-N-(2,2,2-trifluoroethyl)-1,2,4-triazole-3-carboxamide]"
< 100,< 100,< 100,"C=CC(=O)N1CCN(c2nc(OC[C@@H]3C[C@H](N4CCC(C(=O)N5CCN(Cc6ccc(-n7c(C(=O)NCC(F)(F)F)nnc7-c7cc(C(C)C)c(O)cc7O)cc6)CC5)CC4)CN3C)nc3c2CCN(c2cccc4cccc(Cl)c24)C3)C[C@@H]1CC#N [Compound 314, 4-{4-[(4-{1-[(3S,5S)-5-({[7-(8-chloronaphthalen-1-yl)-4-[(3S)-3-(cyanomethyl)-4-(prop-2-enoyl)piperazin-1-yl]-5H,6H,8H-pyrido[3,4-d]pyrimidin-2-yl]oxy}methyl)-1-methylpyrrolidin-3-yl]piperidine-4-carbonyl}piperazin-1-yl)methyl]phenyl}-5-(2,4-dihydroxy-5-isopropylphenyl)-N-(2,2,2-trifluoroethyl)-1,2,4-triazole-3-carboxamide]"
100 to 1000,100 to 1000,< 100,"C=CC(=O)N1CCN(c2nc(OCCN3CCN(Cc4cc(C(C)C)c(O)cc4O)CC3)nc3c2CCN(c2cccc4cccc(Cl)c24)C3)C[C@@H]1CC#N [Compound 216, (S)-2-(1-acryloyl-4-(7-(8-chloronaphthalen-1-yl)-2-(2-(4-(2,4-dihydroxy-5-isopropylbenzyl)piperazin-1-yl)ethoxy)-5,6,7,8-tetrahydropyrido[3,4-d]pyrimidin-4-yl)piperazin-2-yl)acetonitrile]"

# — patent US20230391772A1, “METHODS AND COMPOSITIONS FOR TARGETED PROTEIN DEGRADATION” (Ranok Therapeutics (Hangzhou) Co. Ltd., priority 2020, published 2023)
